The subject of one assay is Musca domestica. Description: Control effect against Musca domestica adults (sucrose solution on swab). Conditions: 50 ppm in 40% sucrose solution, 4 days. It is filed as in vivo. How it is done:
A chemical solution of the compound according to the present invention that had been adjusted with a 40% sucrose solution to a concentration of 50 ppm was adsorbed on a swab, and the swab was placed in a vial. Two adults of Musca domestica grown in a room were released, followed by standing in a room at a room temperature of 25° C. […] When two insects were in a dead or anguished state, the test compound was determined to be effective.

The subject of assay [1] is egg of drug-resistant Tetranychus uruticae. Description: Ovicidal effect against egg of drug-resistant Tetranychus uruticae. It is filed as in vivo. The settings on record: summary of test results in words. How it is done: <Miticidal Effect Against Two-Spotted Spider Mite (Drug-Resistant Strain)>
A leaf disk having a diameter of 2.0 cm was cut out from a kidney bean grown in a pot. The leaf disk was inoculated with seven female adult of drug-resistant Tetranychus uruticae, followed by laying in a thermostatic chamber (25° C.). After the elapse of 24 hr, female adults were removed from the leaf disk. The foliage was treated with a chemical solution adjusted to a 50% aqueous acetone solution (0.05% Tween 20 added) containing a compound of the present invention at a predetermined concentration. The foliage was then air-dried and was allowed to stand in a thermostatic chamber (light period 16 hr-dark period 8 hr) (25° C.). Seven days after the chemical solution treatment, the number of remaining eggs and the number of dead mites were counted, and the ovicidal/miticidal rate was calculated by the following equation.
Ovicidal/miticidal rate (%)={(number of remaining eggs+number of dead mites)/(number of remaining eggs+number of dead mites+number of survived insects)}×100

For assay [2], the system named is adult of Ascaridiidae galli. Description: Anthelminticidal effect against adult of Ascaridiidae galli (in-vitro test). The settings on record: 50 ppm; six adults per culture solution; 41° C.; 24 hr. How it is done: The activity of compounds was evaluated based on a change in motility of adults of A. galli. Compounds of the present invention were dissolved in dimethyl sulfoxide, and the solution was added to a culture solution of A. galli that had been dissolved in a Ringer's solution to a compound concentration of 50 ppm. Six adults of A. galli were placed per culture solution, followed by culturing at 41° C.

This is an account of results in US20170215422A1, “NOVEL CYCLIC DEPSIPEPTIDE DERIVATIVES AND HARMFUL ORGANISM CONTROL AGENTS COMPRISING THE SAME” (priority 2012, published 2017).

Molecules are shown by their SMILES.

Take `CCCCCCC[C@H]1OC(=O)[C@H](CC(C)C)N(C)C(=O)[C@@H](CCCCC)OC(=O)[C@H](C)N(C)C(=O)[C@H](CCCCC)OC(=O)[C@H](C)N(C)C(=O)[C@@H](CCCCC)OC(=O)[C@H](C)N(C)C1=O` [Compound 28]: in the assay with Musca domestica, the “insecticidal activity (two adults dead or anguished = effective)” value (shortened to “insecticidal activity”) was “two insects were brought to a dead or anguished state”.
Regarding `CCCCCCCCC1OC(=O)C(C)N(C)C(=O)C(CCCCC)OC(=O)C(C)N(C)C(=O)C(CCCCC)OC(=O)C(C)N(C)C(=O)C(CCCCC)OC(=O)C(C)N(C)C1=O` (stereo not drawn) [Compound 8], the “insecticidal activity” value with Musca domestica is “two insects were brought to a dead or anguished state”.
As for `CCCCCCCC1OC(=O)C(CC(C)C)N(C)C(=O)C(CCCCC)OC(=O)CN(C)C(=O)C(CCCCC)OC(=O)CN(C)C(=O)C(CCCCC)OC(=O)CN(C)C1=O` (stereo not drawn) [Compound 32], the “insecticidal activity” value in the assay with Musca domestica was “two insects were brought to a dead or anguished state”.
With `CCCCCCCC1OC(=O)C(CCCC)N(C)C(=O)C(CCCCC)OC(=O)C(C)N(C)C(=O)C(CCCCC)OC(=O)C(C)N(C)C(=O)C(CCCCC)OC(=O)C(C)N(C)C1=O` [Compound 16, Cycro(-N-Me-L-Nle (R)-Nna-N-Me-L-Ala-(R)-Hep-N-Me-L-Ala-(R)-Hep-N-Me-L-Ala-(R)-Hep-)], the “insecticidal activity” value with Musca domestica was “two insects were brought to a dead or anguished state”.
With `CCCCCC1OC(=O)C(CC(C)C)N(C)C(=O)C(CCCCC)OC(=O)C(CC(C)C)N(C)C(=O)C(CCCCC)OC(=O)C(CC(C)C)N(C)C(=O)C(CCCCC)OC(=O)C(CCC)N(C)C1=O` (stereo not drawn) [Compound 56], the “insecticidal effect against a strain having a lowered susceptibility to acequinocyl” value in assay [1] was “high insecticidal effect”.
For `CCCCCCCCCC1OC(=O)C(CCC)N(C)C(=O)C(CCCCC)OC(=O)C(C)N(C)C(=O)C(CCCCC)OC(=O)C(C)N(C)C(=O)C(CCCCC)OC(=O)C(C)N(C)C1=O` (stereo not drawn) [Compound 23], the “insecticidal activity” value in the assay on Musca domestica was “two insects were brought to a dead or anguished state”.
As for `CCCCCCCC1OC(=O)C(CC)N(C)C(=O)C(CCCCC)OC(=O)C(C)N(C)C(=O)C(CCCCC)OC(=O)C(C)N(C)C(=O)C(CCCCC)OC(=O)C(C)N(C)C1=O` (stereo not drawn) [Compound 12], the “insecticidal activity” value in the assay on Musca domestica is “two insects were brought to a dead or anguished state”.
Same read-out and setting: to `CCCCCC1OC(=O)C(CC(C)C)N(C)C(=O)C(CCCCC)OC(=O)C(CCC)N(C)C(=O)C(CCCCC)OC(=O)C(CCC)N(C)C(=O)C(CCCCC)OC(=O)CN(C)C1=O` (stereo not drawn) [Compound 60] belongs “two insects were brought to a dead or anguished state”; to `CCCCCC1OC(=O)C(C)N(C)C(=O)C(CCCCC)OC(=O)C(CCCC)N(C)C(=O)C(CCCCC)OC(=O)C(C)N(C)C(=O)C(CCCCC)OC(=O)C(C)N(C)C1=O` (stereo not drawn) [Compound 15], “two insects were brought to a dead or anguished state”.
For the compound `CCCCCC1OC(=O)C(CCC)N(C)C(=O)C(CCCCC)OC(=O)C(CC(C)C)N(C)C(=O)C(CCCCC)OC(=O)C(CC(C)C)N(C)C(=O)C(CCCCC)OC(=O)C(CCC)N(C)C1=O` (stereo not drawn) [Compound 53], the “insecticidal effect against a strain having a lowered susceptibility to acequinocyl” value in assay [1] is on record as “high insecticidal effect”.
As for `CCCCCC1OC(=O)C(CCC)N(C)C(=O)C(CCCCC)OC(=O)C(CCC)N(C)C(=O)C(CCCCC)OC(=O)C(CC(C)C)N(C)C(=O)C(CCCCC)OC(=O)C(CCC)N(C)C1=O` (stereo not drawn) [Compound 55], the “insecticidal effect against a strain having a lowered susceptibility to acequinocyl” value in assay [1] was “high insecticidal effect”.
For the compound `CCCCCCCCCC1OC(=O)C(C)N(C)C(=O)C(CCCCC)OC(=O)C(C)N(C)C(=O)C(CCCCC)OC(=O)C(C)N(C)C(=O)C(CCCCC)OC(=O)C(C)N(C)C1=O` (stereo not drawn) [Compound 9], the “insecticidal activity” value with Musca domestica is given as “two insects were brought to a dead or anguished state”.
Regarding `CCCCCCC1OC(=O)C(CC)N(C)C(=O)C(CCCCC)OC(=O)C(C)N(C)C(=O)C(CCCCC)OC(=O)C(C)N(C)C(=O)C(CCCCC)OC(=O)C(C)N(C)C1=O` (stereo not drawn) [Compound 11], the “insecticidal activity” value in the assay on Musca domestica is “two insects were brought to a dead or anguished state”.
Take `CCCCC[C@H]1OC(=O)CN(C)C(=O)[C@@H](CCCCC)OC(=O)[C@H](CC(C)C)N(C)C(=O)[C@@H](CCCCC)OC(=O)[C@H](CC(C)C)N(C)C(=O)[C@@H](CCCCC)OC(=O)CN(C)C1=O` [Compound 47, Cycro(-N-Me-L-Gly-(R)-Hep-N-Me-L-Gly-(R)-Hep-N-Me-L-Leu-(R)-Hep-N-Me-L-Leu-(R)-Hep-)]: the “insecticidal activity” value with Musca domestica is “two insects were brought to a dead or anguished state”.
Consider `CCCCCCCCC1OC(=O)C(CCC)N(C)C(=O)C(CCCCC)OC(=O)C(C)N(C)C(=O)C(CCCCC)OC(=O)C(C)N(C)C(=O)C(CCCCC)OC(=O)C(C)N(C)C1=O` (stereo not drawn) [Compound 22], for which the “insecticidal activity” value in the assay with Musca domestica is recorded as “two insects were brought to a dead or anguished state”.
With `CCCCCC1OC(=O)C(C)N(C)C(=O)C(CCCCC)OC(=O)C(CC)N(C)C(=O)C(CCCCC)OC(=O)C(C)N(C)C(=O)C(CCCCC)OC(=O)C(C)N(C)C1=O` (stereo not drawn) [Compound 10], the “anthelminticidal activity (adults that stopped automatic motility)” value (“anthelminticidal activity” for short) in assay [2] was “four insects that had stopped automatic motility”.
Take `CCCCCC1OC(=O)C(CC(C)C)N(C)C(=O)C(CCCCC)OC(=O)C(CC(C)C)N(C)C(=O)C(CCCCC)OC(=O)C(CC(C)C)N(C)C(=O)C(CCCCC)OC(=O)CN(C)C1=O` (stereo not drawn) [Compound 33]: the “insecticidal activity” value with Musca domestica is “two insects were brought to a dead or anguished state”.
Take `CCCCCCCC[C@H]1OC(=O)[C@H](CC(C)C)N(C)C(=O)[C@@H](CCCCC)OC(=O)[C@H](C)N(C)C(=O)[C@H](CCCCC)OC(=O)[C@H](C)N(C)C(=O)[C@@H](CCCCC)OC(=O)[C@H](C)N(C)C1=O` [Compound 29]: the “insecticidal activity” value in the assay on Musca domestica is given as “two insects were brought to a dead or anguished state”.
Same read-out and setting: to `CCCCCCCCC1OC(=O)C(CC)N(C)C(=O)C(CCCCC)OC(=O)C(C)N(C)C(=O)C(CCCCC)OC(=O)C(C)N(C)C(=O)C(CCCCC)OC(=O)C(C)N(C)C1=O` (stereo not drawn) [Compound 13] belongs “two insects were brought to a dead or anguished state”.
Take `CCCCCC1OC(=O)C(C)N(C)C(=O)C(CCCC)OC(=O)C(C)N(C)C(=O)C(CCCCC)OC(=O)C(C)N(C)C(=O)C(CCCCC)OC(=O)C(C)N(C)C1=O` (stereo not drawn) [Compound 6]: in assay [2], the “anthelminticidal activity” value is “four insects that had stopped automatic motility”.
Take `CCCCCCCC1OC(=O)C(CCC)N(C)C(=O)C(CCCCC)OC(=O)C(C)N(C)C(=O)C(CCCCC)OC(=O)C(C)N(C)C(=O)C(CCCCC)OC(=O)C(C)N(C)C1=O` (stereo not drawn) [Compound 21]: the “insecticidal activity” value with Musca domestica is listed as “two insects were brought to a dead or anguished state”.
Take `CCCCCCC1OC(=O)CN(C)C(=O)C(CCCCC)OC(=O)C(C)N(C)C(=O)C(CCCCC)OC(=O)C(C)N(C)C(=O)C(CCCCC)OC(=O)C(C)N(C)C1=O` [Compound 2, Cycro(-N-Me-L-Gly-(R)-Oct-N-Me-L-Ala-(R)Hep-N-Me-L-Ala-(R)-Hep-N-Me-L-Ala-(R)-Hep-)]: the “anthelminticidal activity” value in assay [2] was “four insects that had stopped automatic motility”.
As to `CCCCCC1OC(=O)C(C)N(C)C(=O)C(CCCCC)OC(=O)C(CCC)N(C)C(=O)C(CCCCC)OC(=O)C(C)N(C)C(=O)C(CCCCC)OC(=O)C(C)N(C)C1=O` (stereo not drawn) [Compound 19], the “anthelminticidal activity” value in assay [2] is on record as “four insects that had stopped automatic motility”.
For the compound `CCCCCC1OC(=O)C(C)N(C)C(=O)C(CCCCC)OC(=O)C(C)N(C)C(=O)C(CC(C)C)OC(=O)C(C)N(C)C(=O)C(CCCCC)OC(=O)C(C)N(C)C1=O` (stereo not drawn) [Compound 61], in assay [2], the “anthelminticidal activity” value was “four insects that had stopped automatic motility”.
As to `CCCCCCCCC1OC(=O)CN(C)C(=O)C(CCCCC)OC(=O)C(C)N(C)C(=O)C(CCCCC)OC(=O)C(C)N(C)C(=O)C(CCCCC)OC(=O)C(C)N(C)C1=O` (stereo not drawn) [Compound 4], the “insecticidal activity” value in the assay on Musca domestica was “two insects were brought to a dead or anguished state”.
For the compound `CCCCCC1OC(=O)C(C)N(C)C(=O)C(CCCCC)OC(=O)C(C)N(C)C(=O)C(CCCCC)OC(=O)C(C)N(C)C(=O)C(CCCCC)OC(=O)CN(C)C1=O` (stereo not drawn) [Compound 1], the “insecticidal activity” value in the assay with Musca domestica is on record as “two insects were brought to a dead or anguished state”. Besides, the “anthelminticidal activity” value in assay [2] is recorded as “four insects that had stopped automatic motility”.
